Laboratory results published in US11331299B2, “Medicinal use of serrulatane diterpenes” (The University of Sydney, priority 2016, dated 2022).

Legend:
Assay in all cases: biochemical
Format in all cases: binding
[1] = biological target: receptors (Bioprint panel) (Homo sapiens, UniProt P02708); conditions: NICOTINIC […] N muscle-type (h) (antagonist radioligand); 10 μM; read-out: % Inhibition of Control Specific Binding
[2] = biological target: receptors (Bioprint panel) (Homo sapiens, UniProt P03372); conditions: Estrogen ER alpha (h) (agonist radioligand); 10 μM; read-out: % Inhibition of Control Specific Binding
[3] = biological target: receptors (Bioprint panel) (Homo sapiens, UniProt P08913); conditions: […] alpha 2A (h) (antagonist radioligand); 10 μM; read-out: % Inhibition of Control Specific Binding
[4] = biological target: receptors (Bioprint panel) (Homo sapiens, UniProt P11229); conditions: […] M1 (h) (antagonist radioligand); 10 μM; read-out: % Inhibition of Control Specific Binding
[5] = biological target: receptors (Bioprint panel) (Homo sapiens, UniProt P13945); conditions: Adrenergic beta3; 10 μM; read-out: % Inhibition of Control Specific Binding
[6] = biological target: receptors (Bioprint panel) (Homo sapiens, UniProt P14416); conditions: DOPAMINE D2S (h) (agonist radioligand); 10 μM; read-out: % Inhibition of Control Specific Binding
[7] = biological target: receptors (Bioprint panel) (Homo sapiens, UniProt P18089); conditions: […] alpha 2B (h) (antagonist radioligand); 10 μM; read-out: % Inhibition of Control Specific Binding
[8] = biological target: receptors (Bioprint panel) (Homo sapiens, UniProt P21452); conditions: NEUROKININ NK2 (h) (agonist radioligand); 10 μM; read-out: % Inhibition of Control Specific Binding
[9] = biological target: receptors (Bioprint panel) (Homo sapiens, UniProt P24530); conditions: […] (h) (agonist radioligand); 10 μM; read-out: % Inhibition of Control Specific Binding
[10] = biological target: receptors (Bioprint panel) (Homo sapiens, UniProt P25101); conditions: […] (h) (agonist radioligand); 10 μM; read-out: % Inhibition of Control Specific Binding
[11] = biological target: receptors (Bioprint panel) (Homo sapiens, UniProt P28223); conditions: read-out: % Inhibition of Control Specific Binding
[12] = biological target: T1, receptors (Bioprint panel) (Homo sapiens, UniProt P30556); conditions: A[…] AT1 (h) (antagonist radioligand); 10 μM; read-out: % Inhibition of Control Specific Binding
T1 construct: other: ANGIOTENSIN II AT1 (h) (antagonist radioligand); 10 μM

[13] = biological target: receptors (Bioprint panel) (Homo sapiens, UniProt P31391); conditions: SOMASTATIN sst4 (h) (agonist radioligand); 10 μM; read-out: % Inhibition of Control Specific Binding
[14] = biological target: receptors (Bioprint panel) (Homo sapiens, UniProt P32239); conditions: CHOLECYSTOKININ CCK2 (CCKB) (h) (agonist radioligand); 10 μM; read-out: % Inhibition of Control Specific Binding
[15] = biological target: receptors (Bioprint panel) (Homo sapiens, UniProt P32245); conditions: MELANOCORTIN MC4 (h) (agonist radioligand); 10 μM; read-out: % Inhibition of Control Specific Binding
[16] = biological target: receptors (Bioprint panel) (Homo sapiens, UniProt P34969); conditions: read-out: % Inhibition of Control Specific Binding
[17] = biological target: receptors (Bioprint panel) (Homo sapiens, UniProt P35414); conditions: APJ (apelin) (h) (agonist radioligand); 10 μM; read-out: % Inhibition of Control Specific Binding
[18] = biological target: receptors (Bioprint panel) (Homo sapiens, UniProt P43088); conditions: […] (h) (agonist radioligand); 10 μM; read-out: % Inhibition of Control Specific Binding
[19] = biological target: receptors (Bioprint panel) (Homo sapiens, UniProt P43116); conditions: PROSTANOID EP2 (h) (agonist radioligand); 10 μM; read-out: % Inhibition of Control Specific Binding
[20] = biological target: receptors (Bioprint panel) (Homo sapiens, UniProt P47871); conditions: glucagon (h) (agonist radioligand); 10 μM; read-out: % Inhibition of Control Specific Binding
[21] = biological target: receptors (Bioprint panel) (Homo sapiens, UniProt Q9GZV3); conditions: choline transporter (CHT1) (h) (antagonist radioligand); 10 μM; read-out: % Inhibition of Control Specific Binding
[22] = biological target: receptors (Bioprint panel) (Homo sapiens, UniProt Q9H3N8); conditions: HISTAMINE H4 (h) (agonist radioligand); 10 μM; read-out: % Inhibition of Control Specific Binding
[23] = biological target: receptors (Bioprint panel) (Homo sapiens, UniProt Q9UBS5); conditions: GABA GABAB(1b) (h) (antagonist radioligand); 10 μM; read-out: % Inhibition of Control Specific Binding
[24] = biological target: receptors (Bioprint panel) (Homo sapiens, UniProt Q9UKP6); conditions: read-out: % Inhibition of Control Specific Binding
[25] = biological target: receptors (Bioprint panel) (Mus musculus, UniProt Q01727); conditions: MELANOCORTIN MC1 (agonist radioligand); 10 μM; read-out: % Inhibition of Control Specific Binding
[26] = biological target: receptors (Bioprint panel) (Rattus norvegicus, UniProt P28565); conditions: read-out: % Inhibition of Control Specific Binding
[27] = biological target: receptors (Bioprint panel) (Rattus norvegicus, UniProt P34975); conditions: OPIOD & OPIOID-LIKE kappa (KOP) (agonist radioligand); 10 μM; read-out: % Inhibition of Control Specific Binding

Sequence of receptors (Bioprint panel) (Homo sapiens, UniProt P24530) (P24530 27-442): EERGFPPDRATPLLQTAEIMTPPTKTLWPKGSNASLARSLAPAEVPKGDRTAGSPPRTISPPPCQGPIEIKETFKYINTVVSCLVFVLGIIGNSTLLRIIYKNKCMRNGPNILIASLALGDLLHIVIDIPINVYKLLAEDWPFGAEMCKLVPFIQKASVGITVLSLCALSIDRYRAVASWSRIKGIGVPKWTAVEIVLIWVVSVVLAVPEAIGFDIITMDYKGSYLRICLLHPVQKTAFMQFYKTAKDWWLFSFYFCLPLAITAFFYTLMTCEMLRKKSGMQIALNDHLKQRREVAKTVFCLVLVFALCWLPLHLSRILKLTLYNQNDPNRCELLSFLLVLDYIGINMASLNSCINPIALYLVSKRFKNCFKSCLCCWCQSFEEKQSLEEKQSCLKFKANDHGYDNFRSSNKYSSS
Sequence of receptors (Bioprint panel) (Homo sapiens, UniProt P18089) (P18089 whole entry): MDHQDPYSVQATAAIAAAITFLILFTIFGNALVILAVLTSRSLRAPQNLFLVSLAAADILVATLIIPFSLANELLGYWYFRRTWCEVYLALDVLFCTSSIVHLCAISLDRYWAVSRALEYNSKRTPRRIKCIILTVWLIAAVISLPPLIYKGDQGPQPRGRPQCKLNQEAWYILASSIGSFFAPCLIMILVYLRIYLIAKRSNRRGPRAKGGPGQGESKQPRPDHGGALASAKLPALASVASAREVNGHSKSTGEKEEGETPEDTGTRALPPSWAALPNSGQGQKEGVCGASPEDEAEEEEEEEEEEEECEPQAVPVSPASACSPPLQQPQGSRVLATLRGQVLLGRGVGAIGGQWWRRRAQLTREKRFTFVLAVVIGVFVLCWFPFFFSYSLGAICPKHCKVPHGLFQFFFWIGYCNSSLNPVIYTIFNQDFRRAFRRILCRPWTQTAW
Sequence of receptors (Bioprint panel) (Homo sapiens, UniProt P11229) (P11229 whole entry): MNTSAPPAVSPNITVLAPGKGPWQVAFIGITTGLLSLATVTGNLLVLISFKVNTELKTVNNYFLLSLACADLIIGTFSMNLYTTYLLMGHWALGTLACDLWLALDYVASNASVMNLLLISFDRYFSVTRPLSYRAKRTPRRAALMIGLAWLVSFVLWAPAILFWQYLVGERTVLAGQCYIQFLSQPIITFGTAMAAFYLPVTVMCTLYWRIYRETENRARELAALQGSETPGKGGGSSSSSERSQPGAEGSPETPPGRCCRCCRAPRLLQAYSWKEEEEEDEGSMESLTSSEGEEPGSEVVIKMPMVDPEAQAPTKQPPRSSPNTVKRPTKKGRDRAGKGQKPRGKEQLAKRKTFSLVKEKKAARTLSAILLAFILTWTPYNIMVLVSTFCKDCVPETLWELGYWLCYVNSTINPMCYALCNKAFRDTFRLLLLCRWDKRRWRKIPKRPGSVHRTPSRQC
Sequence of receptors (Bioprint panel) (Homo sapiens, UniProt P21452) (P21452 whole entry): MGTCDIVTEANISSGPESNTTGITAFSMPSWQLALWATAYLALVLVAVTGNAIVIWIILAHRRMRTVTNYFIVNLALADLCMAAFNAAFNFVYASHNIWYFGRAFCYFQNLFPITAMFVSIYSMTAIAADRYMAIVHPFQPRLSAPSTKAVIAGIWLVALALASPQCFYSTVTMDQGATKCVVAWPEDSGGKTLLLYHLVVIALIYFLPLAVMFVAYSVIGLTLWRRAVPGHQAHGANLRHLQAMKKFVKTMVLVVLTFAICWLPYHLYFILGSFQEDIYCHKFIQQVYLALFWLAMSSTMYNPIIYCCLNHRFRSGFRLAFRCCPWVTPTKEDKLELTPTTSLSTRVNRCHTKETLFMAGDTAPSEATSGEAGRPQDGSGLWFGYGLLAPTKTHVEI
Sequence of receptors (Bioprint panel) (Homo sapiens, UniProt P35414) (P35414 whole entry): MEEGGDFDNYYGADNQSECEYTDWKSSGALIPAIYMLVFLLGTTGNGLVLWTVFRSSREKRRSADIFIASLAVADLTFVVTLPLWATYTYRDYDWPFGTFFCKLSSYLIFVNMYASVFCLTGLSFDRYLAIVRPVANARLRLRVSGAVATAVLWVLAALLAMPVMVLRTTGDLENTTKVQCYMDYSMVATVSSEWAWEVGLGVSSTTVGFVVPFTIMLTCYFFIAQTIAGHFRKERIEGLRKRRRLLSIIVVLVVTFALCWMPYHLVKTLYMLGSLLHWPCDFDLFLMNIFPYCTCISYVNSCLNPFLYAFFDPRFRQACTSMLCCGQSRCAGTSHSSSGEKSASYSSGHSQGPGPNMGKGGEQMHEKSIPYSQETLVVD
Sequence of receptors (Bioprint panel) (Homo sapiens, UniProt P47871) (P47871 whole entry): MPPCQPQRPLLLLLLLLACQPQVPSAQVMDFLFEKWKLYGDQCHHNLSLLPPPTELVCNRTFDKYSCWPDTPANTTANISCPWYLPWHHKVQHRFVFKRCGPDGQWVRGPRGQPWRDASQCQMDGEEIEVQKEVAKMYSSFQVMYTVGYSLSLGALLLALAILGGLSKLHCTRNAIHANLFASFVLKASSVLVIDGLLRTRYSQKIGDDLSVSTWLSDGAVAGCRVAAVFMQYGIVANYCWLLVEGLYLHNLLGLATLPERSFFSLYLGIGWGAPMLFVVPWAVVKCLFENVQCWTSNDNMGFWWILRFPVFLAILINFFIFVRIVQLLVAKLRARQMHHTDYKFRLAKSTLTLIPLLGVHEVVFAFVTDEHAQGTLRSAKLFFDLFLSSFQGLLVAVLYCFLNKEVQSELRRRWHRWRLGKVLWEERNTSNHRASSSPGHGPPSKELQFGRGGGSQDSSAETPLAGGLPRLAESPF
Sequence of receptors (Bioprint panel) (Homo sapiens, UniProt Q9UBS5) (Q9UBS5 other isoform, or with tags, fused parts or gaps): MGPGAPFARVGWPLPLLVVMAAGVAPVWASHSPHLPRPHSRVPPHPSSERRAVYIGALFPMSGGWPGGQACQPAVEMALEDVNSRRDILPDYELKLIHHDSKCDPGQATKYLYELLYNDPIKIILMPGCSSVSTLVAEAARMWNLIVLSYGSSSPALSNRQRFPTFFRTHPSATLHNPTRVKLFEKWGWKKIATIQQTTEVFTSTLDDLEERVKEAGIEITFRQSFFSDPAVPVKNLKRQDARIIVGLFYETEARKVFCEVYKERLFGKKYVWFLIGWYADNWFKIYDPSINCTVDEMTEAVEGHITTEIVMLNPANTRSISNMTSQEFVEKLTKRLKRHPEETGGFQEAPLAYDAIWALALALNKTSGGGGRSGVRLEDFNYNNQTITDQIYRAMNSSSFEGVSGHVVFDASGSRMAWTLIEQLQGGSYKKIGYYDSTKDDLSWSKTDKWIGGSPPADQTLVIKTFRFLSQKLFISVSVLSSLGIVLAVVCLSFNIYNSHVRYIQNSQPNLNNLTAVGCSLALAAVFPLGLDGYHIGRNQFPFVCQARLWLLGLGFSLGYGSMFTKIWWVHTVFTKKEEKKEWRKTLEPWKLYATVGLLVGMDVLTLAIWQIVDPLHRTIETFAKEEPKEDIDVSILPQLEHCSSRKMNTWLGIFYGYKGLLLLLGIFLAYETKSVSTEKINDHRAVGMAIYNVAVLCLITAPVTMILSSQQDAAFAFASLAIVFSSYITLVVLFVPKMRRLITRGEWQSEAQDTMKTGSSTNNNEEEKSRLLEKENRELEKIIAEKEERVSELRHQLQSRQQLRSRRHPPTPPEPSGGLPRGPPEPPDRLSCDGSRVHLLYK
Sequence of receptors (Bioprint panel) (Homo sapiens, UniProt P43088) (P43088 whole entry): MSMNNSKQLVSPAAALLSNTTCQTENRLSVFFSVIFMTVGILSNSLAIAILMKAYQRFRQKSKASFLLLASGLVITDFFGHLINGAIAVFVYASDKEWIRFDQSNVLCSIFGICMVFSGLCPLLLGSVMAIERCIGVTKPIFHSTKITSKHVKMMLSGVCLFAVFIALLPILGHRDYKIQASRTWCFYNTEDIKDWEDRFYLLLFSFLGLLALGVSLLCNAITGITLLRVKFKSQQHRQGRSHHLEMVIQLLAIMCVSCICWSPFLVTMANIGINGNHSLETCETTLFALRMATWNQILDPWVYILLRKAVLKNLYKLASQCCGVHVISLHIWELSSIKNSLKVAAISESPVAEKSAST
Sequence of receptors (Bioprint panel) (Rattus norvegicus, UniProt P28565) (P28565 whole entry): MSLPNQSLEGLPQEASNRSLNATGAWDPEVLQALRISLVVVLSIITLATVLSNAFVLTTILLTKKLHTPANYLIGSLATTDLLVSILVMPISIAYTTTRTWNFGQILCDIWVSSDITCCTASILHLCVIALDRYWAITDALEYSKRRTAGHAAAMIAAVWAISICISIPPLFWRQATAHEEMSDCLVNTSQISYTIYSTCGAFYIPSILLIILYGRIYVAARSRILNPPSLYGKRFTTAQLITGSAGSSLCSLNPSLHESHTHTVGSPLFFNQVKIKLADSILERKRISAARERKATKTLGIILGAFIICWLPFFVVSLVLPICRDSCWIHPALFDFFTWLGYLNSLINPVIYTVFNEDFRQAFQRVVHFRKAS
Sequence of receptors (Bioprint panel) (Homo sapiens, UniProt P34969) (P34969 whole entry): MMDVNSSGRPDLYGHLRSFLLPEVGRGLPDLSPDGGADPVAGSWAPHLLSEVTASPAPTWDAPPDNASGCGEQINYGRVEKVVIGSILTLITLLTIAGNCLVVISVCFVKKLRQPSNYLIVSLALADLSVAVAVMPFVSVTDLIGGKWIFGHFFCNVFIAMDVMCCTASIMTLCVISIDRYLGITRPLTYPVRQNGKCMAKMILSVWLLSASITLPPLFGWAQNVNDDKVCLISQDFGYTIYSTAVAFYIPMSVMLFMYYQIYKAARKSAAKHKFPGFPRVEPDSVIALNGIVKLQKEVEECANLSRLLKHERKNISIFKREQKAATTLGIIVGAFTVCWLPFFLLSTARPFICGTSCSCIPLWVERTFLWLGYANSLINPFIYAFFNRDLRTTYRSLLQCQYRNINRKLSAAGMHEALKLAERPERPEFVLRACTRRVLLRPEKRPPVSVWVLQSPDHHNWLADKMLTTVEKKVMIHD
Sequence of receptors (Bioprint panel) (Homo sapiens, UniProt P32245) (P32245 whole entry): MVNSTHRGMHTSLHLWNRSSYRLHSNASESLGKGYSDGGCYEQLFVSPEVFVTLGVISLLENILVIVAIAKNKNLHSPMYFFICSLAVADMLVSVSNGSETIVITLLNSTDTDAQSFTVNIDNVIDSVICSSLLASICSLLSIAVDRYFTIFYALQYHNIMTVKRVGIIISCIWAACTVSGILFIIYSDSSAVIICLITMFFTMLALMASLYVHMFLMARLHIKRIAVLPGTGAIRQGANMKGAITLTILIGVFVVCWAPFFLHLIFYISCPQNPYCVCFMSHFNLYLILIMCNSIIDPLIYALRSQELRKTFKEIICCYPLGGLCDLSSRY

CC(C)=CCC[C@H](CO)[C@@H]1CC[C@@H](C)c2c1cc(C)c(O)c2O [Compound 1, 7,8,18-trihydroxyserrulat-14-ene]
inhibition at 10 µM [1]: 1%
inhibition at 10 µM [2]: 40%
inhibition at 10 µM [3]: 35%
inhibition at 10 µM [4]: 8%
inhibition at 10 µM [5]: 33%
inhibition at 10 µM [6]: 59%
inhibition at 10 µM [7]: 7%
inhibition at 10 µM [8]: 52%
inhibition at 10 µM [9]: 40%
inhibition at 10 µM [10]: 6%
inhibition at 10 µM [11]: 9%
inhibition at 10 µM [12]: 60%
inhibition at 10 µM [13]: 40%
inhibition at 10 µM [14]: 6%
inhibition at 10 µM [15]: 37%
inhibition at 10 µM [16]: 14%
inhibition at 10 µM [17]: 24%
inhibition at 10 µM [18]: 54%
inhibition at 10 µM [19]: 53%
inhibition at 10 µM [20]: -20%
inhibition at 10 µM [21]: -41%
inhibition at 10 µM [22]: 23%
inhibition at 10 µM [23]: -17%
inhibition at 10 µM [24]: 46%
inhibition at 10 µM [25]: 11%
inhibition at 10 µM [26]: 18%
inhibition at 10 µM [27]: 39%
